Key:
FPR1 = molecular target: T1, FPR1 (Homo sapiens, UniProt P21462); experiment: Compound-induced calcium activity (FLIPR Tetra) in CHO-Gα16 cells stably expressing FPR1; format: cell-based; settings: for EC50 / Emax: CHO-Gα16 cells stably expressing FPR1; for EC50: calcium activity, tested 0.61 to 10,000 nM, read-out: FPR1 Ga16-CHO EC50; for Emax: efficacy value in brackets, read-out: FPR1 Ga16-CHO (% eff); for Ratio FPR2:FPR1 (EC50): ratio of the EC50 for agonizing FPR2 to the EC50 for agonizing FPR1
T1 construct: expressed in transfected cells
T1 sequence (P21462 1-350): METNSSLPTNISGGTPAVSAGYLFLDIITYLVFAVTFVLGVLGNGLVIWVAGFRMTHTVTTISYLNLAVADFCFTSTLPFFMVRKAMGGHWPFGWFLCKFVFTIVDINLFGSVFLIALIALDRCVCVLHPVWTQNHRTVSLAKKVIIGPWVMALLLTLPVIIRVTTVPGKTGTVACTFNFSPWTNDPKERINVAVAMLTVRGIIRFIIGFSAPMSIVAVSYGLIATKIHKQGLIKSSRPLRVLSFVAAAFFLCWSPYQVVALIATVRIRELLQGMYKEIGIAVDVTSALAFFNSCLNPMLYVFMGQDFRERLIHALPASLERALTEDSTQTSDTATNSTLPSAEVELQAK
Procedure: (§1) CHO-Gα16 cells stably expressing FPR1 or FPR2 were cultured in: Ham's F12 nutrient media, 10% fetal bovine serum, 1% PSA (penicillin, streptomycin, amphotericin B antiobiotic/antimycotic), 400 μg/ml geneticin and 50 μg/ml hygromycin. In general, the day before the experiment, 18,000 cells/well were plated in a 384-well clear bottom poly-D-lysine coated plate. The following day the screening compound-induced calcium activity was assayed on the FLIPR^Tetra. The drug plates were prepared in 384-well microplates using the EP3 and the MultiPROBE robotic liquid handling systems. Compounds were tested at concentrations ranging from 0.61 to 10,000 nM. Results are expressed as EC50 (nM) and efficacy values.

FPR2 = molecular target: T2, FPR2 (Homo sapiens, UniProt P25090); experiment: Compound-induced calcium activity (FLIPR Tetra) in CHO-Gα16 cells stably expressing FPR2; format: cell-based; settings: for EC50: calcium activity, tested 0.61 to 10,000 nM, read-out: FPR2 Ga16-CHO EC50; for Emax: efficacy value in brackets, read-out: FPR2 Ga16-CHO (% eff)
T2 construct: expressed in transfected cells
T2 sequence (P25090 1-351): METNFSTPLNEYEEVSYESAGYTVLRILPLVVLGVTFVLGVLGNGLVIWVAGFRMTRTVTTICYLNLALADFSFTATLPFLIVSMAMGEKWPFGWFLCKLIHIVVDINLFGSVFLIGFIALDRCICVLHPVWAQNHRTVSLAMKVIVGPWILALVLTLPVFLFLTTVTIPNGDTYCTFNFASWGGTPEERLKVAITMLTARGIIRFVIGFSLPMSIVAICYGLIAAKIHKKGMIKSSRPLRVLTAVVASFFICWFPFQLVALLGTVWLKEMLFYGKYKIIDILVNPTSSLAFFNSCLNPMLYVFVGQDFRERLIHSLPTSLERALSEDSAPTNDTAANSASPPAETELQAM
Procedure: as §1

| EC50 (FPR1) [nM] | Emax (FPR1) [%] | Ratio FPR2:FPR1 (EC50) (FPR1) | EC50 (FPR2) [nM] | Emax (FPR2) [%] | SMILES |
| --- | --- | --- | --- | --- | --- |
| 156 | 95 | 6.4 | 1000 | 43 | CC(C)CC(CNC(=O)Nc1ccc(Br)cc1)C(=O)NCC(=O)O (centres unmarked) [Compound 36, ({2-[({[(4-bromophenyl)amino]carbonyl}amino)methyl]-4-methylpentanoyl}amino)acetic acid] |
| 55 | 96 | 0.22 | 12 | 104 | CC(C)CC(CNC(=O)Nc1ccc(Br)cc1)C(=O)N(C)CC(=O)O (centres unmarked) [Compound 37, 2-(2-((3-(4-bromophenyl)ureido)methyl)-N,4-dimethylpentanamido)acetic acid] |
| 2600 | 77 | 0.83 | 2170 | 80 | COC(=O)C(CNC(=O)CNC(=O)Nc1ccc(Br)cc1)CC(C)C (centres unmarked) [Compound 38] |
| 19 | 96 | 88 | 1680 | 77 | CC(C)CC(CNC(=O)CNC(=O)Nc1ccc(Br)cc1)C(=O)O (centres unmarked) [Compound 39, 2-((2-(3-(4-Bromophenyl)ureido)acetamido)methyl)-4-methylpentanoic acid] |
